How the values were obtained:
[1] = Decay of vitamin stored in liquid solution (loss of initial activity); conditions: dissolved in a liquid solution, stored in a closed and dark container, after 60 days
[2] = Time required to completely dissolve Vitamin C powder in water; format: physicochemical
Excerpt: 1. Determine the amount of time required to completely dissolve Vitamin C powder with 12 to 15 cc of water. In general, it requires 45 to 120 seconds to completely dissolve 1% to 15% Vitamin C powder in water.

Compound | loss of initial activity [1] | Time to completely dissolve ([2]; 1% to 15% Vitamin C powder in water) | Time to completely dissolve ([2]; 1 wt % Vitamin C, 151 mg in 15 g water) | Time to completely dissolve ([2]; 5 wt % Vitamin C, 526 mg in 12 g water) | Time to completely dissolve ([2]; 10 wt % Vitamin C, 1107 mg in 12 g water) | Time to completely dissolve ([2]; 15 wt % Vitamin C, 1765 mg in 12 g water) | Time to completely dissolve ([2]; 20 wt % Vitamin C, 2496 mg in 12 g water)
O=C1O[C@H]([C@@H](O)CO)C(O)=C1O [Vitamin C, L-ascorbic acid] | ~72% | 45 to 120 s | 60 s | 45 s | 75 s | 120 s | 210 s
tocopherol [Vitamin E] | ~35% |  |  |  |  |  | 

From patent US11661259B2, “Apparatus, arrangement and method for providing skin care ingredients” (MEMORIAL SLOAN-KETTERING CANCER CENTER, priority 2013, dated 2023)
